# Experiments:
# [1] = tested on: human prostate cancer cells (PC3); assay: MTT dye reduction viability test, PC3; format: cell-based; settings: for IC50 / viability at 10 µM / viability at 20 µM / viability at 40 µM / viability at 60 µM / viability at 80 µM / viability at 100 µM: Homo sapiens; for IC50: 72 h exposure, MTT, mean ± SD, read-out: Cytotoxic activity IC50, PC3; for viability at 10 µM: PC3, 10 µM; for viability at 10 µM / viability at 20 µM / viability at 40 µM / viability at 60 µM / viability at 80 µM / viability at 100 µM: representative MTT result (Table S1 A); for viability at 20 µM: PC3, 20 µM; for viability at 40 µM: PC3, 40 µM; for viability at 60 µM: PC3, 60 µM; for viability at 80 µM: PC3, 80 µM; for viability at 100 µM: PC3, 100 µM, read-out: Cells viability
# Protocol: (§1) We have chosen two types of cell culture lines: human prostate cancer cells (PC3) and normal human immortal keratinocyte cells (HaCaT) (Table 1).
# (§2) Human prostate cancer cells (PC3) and human immortal keratinocyte cell line from adult human skin (HaCaT) were obtained from American Type Culture Collection (Teddington, UK) and cultured according to its instructions RPMI 1640 (L0490) medium or DMEM (L0102) medium, respectively, in a 95% air and 5% CO2 humidified incubator at 37 °C. Both media (Biowest) were supplemented with 10% fetal bovine serum (FBS), 100 U/mL penicillin and 100 μg/mL streptomycin. 10 mM stock solutions of tested compounds in DMSO were prepared.
# (§3) To assess the cells growth inhibition, the MTT dye reduction test was preformed based on the method described by Präbst et al.. Both PC3 and HaCaT cells (1 × 10^3/well) were seeded into 96-well plates and incubated for 24 h to attach to the bottom of the well in appropriate medium (200 μL) and treated with tested compounds (0–100 μM). The medium with compounds was removed after 72 h and MTT (0.5 mg/mL) in fresh growth medium without serum was added to each well. The plates were incubated in dark for 4 h at 37 °C. Then, the solution in each well was removed and refilled with 100 μL DMSO: isopropanol (1:1) to dissolve formazon crystals. The optical density was measured with an UVM 340 (ASYS Hitech GmbH, Austria) microplate reader at 570 nm. Replicates of three wells for each dosage, including vehicle control, were analyzed for each experiment. The experiments were conducted in triplicate. The results are expressed as IC50 values. The value of IC50 was estimated using CompuSyn version 1.0.
# [2] = MTT dye reduction viability test, HaCaT; format: cell-based, human; settings: human; for IC50 at 72 h / viability at 72 h, 10 µM / viability at 72 h, 20 µM / viability at 72 h, 40 µM / viability at 72 h, 60 µM / viability at 72 h, 80 µM / viability at 72 h, 100 µM: HaCaT cells (immortal keratinocytes)
# Protocol: as §1, §2, §3
# [3] = tested on: human immortal keratinocyte cells (HaCaT); assay: MTT dye reduction viability test, HaCaT; format: cell-based; settings: for IC50: 72 h exposure, MTT, mean ± SD, read-out: Cytotoxic activity IC50, HaCaT
# Protocol: as §1, §2, §3
# rat brain homogenate = assay: Lipid peroxidation (MDA/TBA) induced by FeCl2 and ascorbic acid; format: biochemical; settings: 10 µM compound; for MDA concentration: oxidation by 0.1% FeCl2 and 1 mM ascorbic acid, 1 h 37 °C, control 9.644 ± 1.570
# Protocol: The antioxidant potential of the new flavone derivatives was assessed based on the analysis of malondialdehyde concentration formed as a product of lipid oxidation stimulated by iron (II) ions.
# After preparation, the brain was placed on an ice plate and washed with cold 0.9% NaCl. 10% (m/v) brain solution was obtained by homogenization in cold 10 mM TRIS-HCl buffer, pH = 7.5. The homogenate was centrifuged (2000 rpm, 10 min, 4 °C) to obtain supernatant 1 (S1).
# 100 µM stock solutions of test compounds in DMSO were prepared. The test compound solution was added to a […] S1 homogenate to a final concentration of 10 µM.
# The oxidation reaction was induced by adding to the samples with or without the test compounds freshly prepared solutions: 0.1% FeCl2 (0.2 mL) and 1 mM ascorbic acid (0.4 mL). After incubation for 1 h at 37 °C, the reaction was stopped by adding 8.1% sodium dodecyl sulfate (SDS) solution. In order to determine the concentration of MDA, the acetic acid/HCl buffer at pH = 3.4 and 120 μL of 0.8% thiobarbituric acid (TBA) solution at pH = 6 were added to the samples. The samples were incubated for 1 h at 100 °C. After incubation, the samples were cooled on ice and centrifuged for 10 min at 4000 RPM. The absorbance was measured at a wavelength of 532 nm. Blank content: 0.5 mL of acetate buffer + 0.5 mL of TBA solution.
# Calculation of malondialdehyde (MDA) concentration (Equation (1)):(1) MDA concentration=∆ A532 nm × 1.56 ×10^−6 [nmol MDA/h/g tissue]
# [4] = 72 h exposure, MTT, mean ± SD, read-out: Cytotoxic activity IC50, HaCaT
# [5] = HaCaT, 10 µM, 72 h, representative MTT result (Table S1 B)
# [6] = HaCaT, 20 µM, 72 h, representative MTT result (Table S1 B)
# [7] = HaCaT, 40 µM, 72 h, representative MTT result (Table S1 B)
# [8] = HaCaT, 60 µM, 72 h, representative MTT result (Table S1 B)
# [9] = HaCaT, 80 µM, 72 h, representative MTT result (Table S1 B)
# [10] = HaCaT, 100 µM, 72 h, representative MTT result (Table S1 B), read-out: Cells viability
SMILES,IC50 [1] [µM],viability at 10 µM ([1]; 72 h) [%],viability at 20 µM ([1]; 72 h) [%],viability at 40 µM ([1]; 72 h) [%],viability at 60 µM ([1]; 72 h) [%],viability at 80 µM ([1]; 72 h) [%],viability at 100 µM ([1]; 72 h) [%],"IC50 at 72 h [2, 4] [µM]","viability at 72 h, 10 µM [2, 5] [%]","viability at 72 h, 20 µM [2, 6] [%]","viability at 72 h, 40 µM [2, 7] [%]","viability at 72 h, 60 µM [2, 8] [%]","viability at 72 h, 80 µM [2, 9] [%]","viability at 72 h, 100 µM [2, 10] [%]",IC50 [3] [µM],MDA concentration (rat brain homogenate) [mM × 10^−3],also measured
"CCC=CCC=CCC=CCCCCCCCC(=O)Oc1ccc2c(c1)C(=O)CC(c1ccccc1)O2 (stereo not shown) [6-Linolenic-Flavanone, 6-hydroxy-flavanone linolenic ester]",51.4 ± 2.8,92.5,85.9,79.5,48,35.8,31.5,80 ± 4.75,95.8,75.2,53.3,38.1,25.8,23.8,44.6 ± 5.89,,
"CCCCCCCCC=CCCCCCCCC(=O)Oc1ccc2c(c1)C(=O)CC(c1ccccc1)O2 (stereo not shown) [6-Oleic-Flavanone, 6-hydroxy-flavanone oleic ester]",38.1 ± 3.24,100,70.9,41.4,19.3,13.3,6.81,53.3 ± 6.87,97.8,70,75.7,26.4,26.5,26.5,53.3 ± 6.87,8.326 ± 0.490,melting point: 46.2 to 47.1 °C
"CCCCCCCCCCCCCCCCCC(=O)Oc1ccc2c(c1)C(=O)CC(c1ccccc1)O2 (stereo not shown) [6-Stearic-Flavanone, 6-hydroxy-flavanone stearic ester]",> 100,96.5,106,99.6,93.9,93.6,93.7,40.6 ± 4.21,95.4,82.5,54.7,47.8,32.5,11.7,40.6 ± 4.21,7.875 ± 0.343,"cytotoxic potential in PC3 cells (in words) ([1]; PC3, 0–100 μM, 72 h): no cytotoxic potential"
"O=c1cc(-c2ccccc2)oc2cc(O)ccc12 [7-Hydroxy-Flavone, 7-hydroxy-flavone, reference compound]",> 100,123,117,111,95.4,65,62.7,,,,,,,,,7.702 ± 1.080,"reduction of PC3 cells viability compared to control cells ([1]; PC3, 72 h, concentration not given): 38%; IC50 [2, 4]: > 100 µM; viability at 10 µM ([2]; HaCaT, 10 µM, 72 h, representative MTT result (Table S1 B), read-out: Cells viability): 93.8%; viability at 20 µM ([2]; HaCaT, 20 µM, 72 h, representative MTT result (Table S1 B), read-out: Cells viability): 65.8%; viability at 40 µM ([2]; HaCaT, 40 µM, 72 h, representative MTT result (Table S1 B), read-out: Cells viability): 69.7%; viability at 60 µM ([2]; HaCaT, 60 µM, 72 h, representative MTT result (Table S1 B), read-out: Cells viability): 96.2%; viability at 80 µM ([2]; HaCaT, 80 µM, 72 h, representative MTT result (Table S1 B), read-out: Cells viability): 97.2%; viability at 100 µM [2, 10]: 92.4%; cytotoxic activity towards HaCaT cells (in words) ([3]; HaCaT, 0–100 μM, 72 h): did not exhibit cytotoxic activity; reduction of the level of MDA compared to the control sample (rat brain homogenate; rat brain homogenate): 20.14%"

# From paper PMC8777613, “Effect of Hydroxyl Groups Esterification with Fatty Acids on the Cytotoxicity and Antioxidant Activity of Flavones” (Molecules, 2022)
